Experimental data as given in patent publication US20110178182A1, “ENRICHED NANOSTRUCTURE COMPOSITION” (DO-COOP TECHNOLOGIES LTD., priority 2007, published 2011).

How the values were obtained:
[1] = Solubilizing Daunorubicine; format: physicochemical; details: 2 mg/ml in GENC or RO water
Description: Required concentration: 2 mg/ml

[2] = Solvent capability: Taxol (Example 28); format: physicochemical; details: 0.5 mM in DMSO or in the composition with 17% EtOH
Description: 0.5 mM Taxol solution can be prepared (0.0017 gr in 4 ml) in either DMSO or the enriched nanostructure composition of the present embodiments with 17% EtOH. Absorbance can be detected with a spectrophotometer.

Structure (SMILES)	dissolution [1]	dissolution [2]
COc1cccc2c1C(=O)c1c(O)c3c(c(O)c1C2=O)C[C@@](O)(C(C)=O)C[C@@H]3O[C@H]1C[C@H](N)[C@H](O)[C@H](C)O1 [Daunorubicine]	dissolved easily both in the enriched nanostructure composition of the present embodiments and in RO water	
CC(=O)O[C@H]1C(=O)[C@@]2(C)[C@H]([C@H](OC(=O)c3ccccc3)[C@]3(O)C[C@H](OC(=O)[C@H](O)[C@@H](NC(=O)c4ccccc4)c4ccccc4)C(C)=C1C3(C)C)[C@]1(OC(C)=O)CO[C@@H]1C[C@@H]2O [Taxol, Paclitaxel]		dissolved both in DMSO and the enriched nanostructure composition
